Source: the NIST ThermoML archive (doi:10.1021/je0301895)

Key:
[1] = xn = mol fraction of the nth substance listed; conditions: 298.15 K, 101 kPa, Liquid
[2] = Solid-liquid equilibrium temperature; conditions: 101.3 kPa; Crystal
[3] = 298.15 K; 101.33 kPa; Liquid

CCCCCCCCN [1-octanamine] + CCCCCCCCO
[1]
Conditions	excess molar volume [m3/mol]
x2 = 0.043	-1.921e-07
x2 = 0.13	-4.625e-07
x2 = 0.2358	-7.264e-07
x2 = 0.3041	-8.581e-07
x2 = 0.347	-9.393e-07
x2 = 0.4158	-1.024e-06
x2 = 0.4571	-1.062e-06
x2 = 0.5174	-1.071e-06
x2 = 0.554	-1.068e-06
x2 = 0.5877	-1.052e-06
x2 = 0.6385	-1.012e-06
x2 = 0.709	-9.034e-07
x2 = 0.7589	-8.079e-07
x2 = 0.875	-5.102e-07
x2 = 0.929	-3.207e-07
x2 = 0.992	-7.24e-08

CCCCCCCCN [1-octanamine] + CCCCCCCCCCO
[1]
Conditions	excess molar volume [m3/mol]
x2 = 0.0791	-2.401e-07
x2 = 0.1302	-3.963e-07
x2 = 0.2056	-6.005e-07
x2 = 0.2788	-7.66e-07
x2 = 0.3263	-8.612e-07
x2 = 0.3863	-9.584e-07
x2 = 0.422	-1.002e-06
x2 = 0.4623	-1.03e-06
x2 = 0.5138	-1.042e-06
x2 = 0.5525	-1.039e-06
x2 = 0.5811	-1.023e-06
x2 = 0.6153	-9.952e-07
x2 = 0.6452	-9.534e-07
x2 = 0.6956	-8.646e-07
x2 = 0.7565	-7.349e-07
x2 = 0.8463	-4.965e-07
x2 = 0.9025	-3.208e-07
x2 = 0.97	-1.278e-07

CCCCCCCCO [octan-1-ol]
Conditions	Solid-liquid equilibrium temperature [K]	mass density [kg/m3]
[2]	258.03	–
[3]	–	822.21

CCCCCCCCCO [nonan-1-ol]
Conditions	Solid-liquid equilibrium temperature [K]	mass density [kg/m3]
[2]	268.1	–
[3]	–	824.6

CCCCCCCCN [1-octanamine] + CCCCCCCCCCCO
[1]
Conditions	excess molar volume [m3/mol]
x2 = 0.0752	-2.147e-07
x2 = 0.1043	-2.984e-07
x2 = 0.1334	-3.833e-07
x2 = 0.2069	-5.724e-07
x2 = 0.3217	-8.29e-07
x2 = 0.4007	-9.437e-07
x2 = 0.4491	-9.846e-07
x2 = 0.4941	-1.008e-06
x2 = 0.5463	-1.008e-06
x2 = 0.5958	-9.803e-07
x2 = 0.639	-9.391e-07
x2 = 0.6894	-8.58e-07
x2 = 0.7458	-7.411e-07
x2 = 0.7961	-6.06e-07
x2 = 0.873	-4.122e-07
x2 = 0.9158	-2.804e-07

CCCCCCCCN [1-octanamine]
Conditions	Solid-liquid equilibrium temperature [K]	mass density [kg/m3]
[2]	273.37	–
[3]	–	779.95

CCCCCCCCCCO [decan-1-ol]
Conditions	Solid-liquid equilibrium temperature [K]	mass density [kg/m3]
[2]	278.67	–
[3]	–	826.64

CCCCCCCCN [1-octanamine] + CCCCCCCCCO
[1]
Conditions	excess molar volume [m3/mol]
x2 = 0.0489	-1.701e-07
x2 = 0.1572	-4.742e-07
x2 = 0.2155	-6.354e-07
x2 = 0.2763	-7.661e-07
x2 = 0.3283	-8.704e-07
x2 = 0.356	-9.277e-07
x2 = 0.4125	-1.005e-06
x2 = 0.4566	-1.043e-06
x2 = 0.4998	-1.055e-06
x2 = 0.5326	-1.057e-06
x2 = 0.5732	-1.049e-06
x2 = 0.6064	-1.016e-06
x2 = 0.637	-9.761e-07
x2 = 0.6602	-9.511e-07
x2 = 0.7321	-8.074e-07
x2 = 0.7905	-6.629e-07
x2 = 0.8753	-4.313e-07
x2 = 0.961	-1.661e-07

CCCCCCCCCCCO [1-undecanol]
Conditions	Solid-liquid equilibrium temperature [K]	mass density [kg/m3]
[2]	289.63	–
[3]	–	829.34
